Read-outs that look alike come from different tables or passages of the source.
How the values were obtained:
SHP2 enzyme = SHP2 enzyme (Homo sapiens (Human), UniProt Q06124); experiment: Inhibitory activity against SHP2 enzyme (Caliper conversion rate); type: biochemical; conditions: read-out: SHP2 Enzyme Inhibition IC50 Value
Description: (1) Preparing 1×Reaction Buffer according to the BPS Biosciences' Instructions for Use of the SHP2 enzyme. (2) Preparing a compound concentration gradient: Test the test compound at 10 μM under 3× dilution for 10 concentrations, diluting to a 100% dimethyl sulfoxide solution at a 100× final concentration in a 384-well plate, and diluting the compound with Precision 4× for 10 concentrations. Transferring 250 nL of the compound at the 100× final concentration to a target plate OptiPlate-384F using a dispenser Echo 550. […] (3) Preparing the activation peptide solution at a 5× final concentration with the 1×Reaction Buffer, adding 5 μL of the solution to a reaction plate, respectively, and centrifuging at 1000 rpm for 1 min. (4) Preparing an enzyme solution at a 2.5× final concentration with the 1×Reaction Buffer, adding 10 μL of the solution to the reaction plate, respectively, centrifuging at 1000 rpm for 1 min, and incubating at room temperature for 60 min. (5) Preparing a substrate peptide solution at a 2.5× final concentration with the 1×Reaction Buffer, centrifuging at 1000 rpm for 1 min, and incubating at room temperature for 30 min. (6) Adding 30 μL of stop test solution to stop the reaction, centrifuging at 1000 rpm for […], and mixing well by shaking. (7) Reading the conversion rate with a Caliper EZ Reader. (7) Data analysis:
Wherein: Conversion %/_sample is the reading of a conversion rate of a sample; Conversion %_min: mean of negative control wells, which represents the reading of a conversion rate in absence of enzyme activity wells; Conversion %_max: mean of a ratio of positive control wells, which represents the reading of a conversion rate in absence of compound inhibition wells.

MV4-11 leukemia cells = experiment: Inhibition of proliferation of MV4-11 leukemia cells (CellTiter-Glo, 72 h); type: cell-based; conditions: read-out: IC50 value, MV4-11 cell proliferation
Description: Specific experimental procedures: 1) At Day 0: Inoculating trypsin-digested cells in 96-well plate and suspending the plate in cell culture medium; measure cell density using an automatic cell counter, diluting the cells with the culture medium to appropriate density, adding 100 μl of cell suspension in the 96-well plate, and incubating a cell-free medium as a control well in a cell incubator with […] at 37° C. overnight; 2) Day 1: Treating test compounds of the cells using a drug for a total of 8 concentrations, and diluting at a 3× concentration, wherein 10 μM is a starting test concentration of the test compounds. […] IC50 values are obtained by a four-parameter regression using software attached to the plate reader (the specific results are shown in Table 2).

[1] = Homo sapiens, MV4-11, 72 h, in uM

SHP2 enzyme, sequence (Q06124 whole entry): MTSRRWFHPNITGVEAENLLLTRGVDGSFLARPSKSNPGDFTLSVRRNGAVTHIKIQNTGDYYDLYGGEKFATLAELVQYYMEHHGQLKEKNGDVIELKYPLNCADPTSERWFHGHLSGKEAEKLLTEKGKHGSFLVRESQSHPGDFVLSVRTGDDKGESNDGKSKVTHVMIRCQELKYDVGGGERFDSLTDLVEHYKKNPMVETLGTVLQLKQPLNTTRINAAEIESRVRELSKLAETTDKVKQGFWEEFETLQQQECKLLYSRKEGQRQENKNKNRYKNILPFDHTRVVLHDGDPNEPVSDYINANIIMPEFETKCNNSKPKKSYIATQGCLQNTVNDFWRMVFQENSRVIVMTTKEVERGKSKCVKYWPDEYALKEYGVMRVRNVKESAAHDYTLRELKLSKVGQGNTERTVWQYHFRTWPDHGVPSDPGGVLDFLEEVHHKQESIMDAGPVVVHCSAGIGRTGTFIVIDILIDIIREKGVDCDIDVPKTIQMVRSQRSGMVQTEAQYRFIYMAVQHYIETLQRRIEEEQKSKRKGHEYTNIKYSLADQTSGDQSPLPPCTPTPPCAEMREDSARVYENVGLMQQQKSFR

Structure (SMILES)	IC50 (SHP2 enzyme)	IC50 (MV4-11 leukemia cells; Homo sapiens, MV4-11, 72 h)	IC50 (MV4-11 leukemia cells; [1])	IC50 (MV4-11 leukemia cells; 72 h)
Cc1nc(N2CCC3(CC2)Cc2ncccc2[C@H]3N)n2ccnc2c1Sc1ccnc(N)c1Cl [Example 6, (S)-1′-(8-((2-amino-3-chloropyridin-4-yl)thio)-7-methylimidazo [1,2-c]pyrimidin-5-yl)-5,7-dihydrospiro [cyclopentano [b]pyridine-6,4′-piperidine]-5-amine]	1.3 nM	0.0087 µM	–	–
Cc1nc(N2CCC3(CC2)Cc2cc(F)c(F)cc2[C@H]3N)n2ccnc2c1Sc1ccnc(N)c1Cl [Example 8, (S)-1′-(8-((2-amino-3-chloropyridin-4-yl)thio)-7-methylimidazo [1,2-c]pyrimidin-5-yl)-5,6-difluoro-1,3-dihydrospiro [indene-2,4′-piperidine]-1-amine]	3.7 nM	0.012 µM	–	–
Cc1nc(N2CCC(C)(N)CC2)n2ccnc2c1-c1cccc(Cl)c1Cl [Comparative Compound 1, 1-(8-(2,3-dichlorophenyl)-7-methylimidazo [1,2-c]pyrimidin-5-yl)-4-methylpiperidin-4-amine, reference compound]	141 nM	1.41 µM	–	–
Cc1cc(N2CCC(C)(N)CC2)n2cnnc2c1-c1cccc(Cl)c1Cl [Example 23, 1-(8-(2,3-dichlorophenyl)-7-methyl-[1,2,4]triazole [4,3-a]pyridin-5-yl)-4-methylpiperidin-4-amine]	–	–	> 10 µM	–
Cc1nc(N2CCC3(CC2)Cc2ccccc2C3N)n2ccnc2c1Sc1ccnc(N)c1Cl (centres unmarked) [Example 20, 1′-(8-((2-amino-3-chloropyridin-4-yl)thio)-7-methylimidazo [1,2-c]pyrimidin-5-yl)-1,3-dihydrospiro [indene-2,4′-piperidine]-1-amine]	3.8 nM	0.0094 µM	–	–
Cc1nc(N2CCC(C)(N)CC2)n2ccnc2c1Sc1cccc(Cl)c1Cl [Example 25, 1-(8 ((2,3-dichlorophenyl)sulfanyl)-7-methylimidazole [1,2-c]pyrimidin-5-yl)-4-methylpiperidin-4-amine]	–	1.36 µM	–	–
Cc1nc(N2CCC(C)(N)CC2)n2ncnc2c1-c1cccc(Cl)c1Cl [Example 21, 1-(8-(2,3-dichlorophenyl)-7-methyl-[1,2,4]triazole [1,5-c]pyrimidin-5-yl)-4-methylpiperidin-4-amine]	–	–	> 10 µM	–
Cc1nc(N2CCC3(CC2)Oc2ccccc2[C@H]3N)n2ccnc2c1Sc1ccnc(N)c1Cl [Example 13, (R)-1′-(8-((2-amino-3-chloropyridin-4-yl)thio)-7-methylimidazo [1,2-c]pyrimidin-5-yl)-3H-spiro [benzofuran-2,4′-piperidine]-3-amine]	1.8 nM	0.0392 µM	–	–
Cc1nc(N2CCC3(CCC[C@H]3N)CC2)n2ccnc2c1Sc1ccnc(N)c1Cl [Example 26, (R)-8-(8-((2-amino-3-chloropyridin-4-yl)thio)-7-methylimidazole [1,2-c]pyrimidin-5-yl)-8-azaspiro [4.5] quin-1-amine]	6.1 nM	0.147 µM	–	–
CC1(N)CCN(c2nc(CF)c(-c3cccc(Cl)c3Cl)c3nccn23)CC1 [Example 28, 1-(8-(2,3-dichlorophenyl)-7-(fluoromethylene)imidazole [1,2-c]pyrimidin-5-yl)-4-methylpiperidin-4-amine]	–	2.01 µM	–	–
COc1ccc2c(c1)[C@@H](N)C1(CCN(c3nc(C)c(Sc4ccnc(N)c4Cl)c4nccn34)CC1)C2 [Example 7, (S)-1′-(8-((2-amino-3-chloropyridin-4-yl)thio)-7-methylimidazo [1,2-c]pyrimidin-5-yl)-6-methoxy-1,3-dihydrospiro [indene-2,4′-piperidine]-1-amine]	2.1 nM	0.0093 µM	–	–
Cc1cc(N2CCC3(CC2)Cc2ccccc2[C@H]3N)n2ccnc2c1Sc1ccnc(N)c1Cl [Example 17, (S)-1′-(8-((2-amino-3-chloropyridin-4-yl)thio)-7-methylimidazo [1,2-a]pyridin-5-yl)-1,3-dihydrospiro [indene-2,4′-piperidine]-1-amine]	9.1 nM	0.048 µM	–	–
Cc1nc(N2CCC3(CC2)Cc2ncsc2[C@H]3N)n2ccnc2c1Sc1ccnc(N)c1Cl [Example 14, (S)-1′-(8-((2-amino-3-chloropyridin-4-yl)thio)-7-methylimidazo [1,2-c]pyrimidin-5-yl)-4,6-dihydrospiro [cyclopentano [d]thiazol-5,4′-piperidine]-6-amine]	3.1 nM	0.0184 µM	–	–
Cc1nc(N2CCC3(CC2)Cc2ccccc2[C@H]3N)n2ccnc2c1-c1cccnc1C(F)(F)F [Example 16, (S)-1′-(7-methyl-8-(2-(trifluoromethyl)pyridin-3-yl)imidazo [1,2-c]pyrimidin-5-yl)-1,3-dihydrospiro [indene-2,4′-piperidine]-1-amine]	9.5 nM	0.108 µM	–	–
CC1(N)CCN(c2ncc(-c3cccc(Cl)c3Cl)c3nccn23)CC1 [Comparative Compound 2, 1-(8-(2,3-dichlorophenyl)imidazo [1,2-c]pyrimidin-5-yl)-4-methylpiperidin-4-amine, reference compound]	3460 nM	> 10 µM	–	–
Cc1cc(N2CCC(C)(N)CC2)n2ccnc2c1-c1cccc(Cl)c1Cl [Example 24, 1-(8-(2,3-dichlorophenyl)-7-methylimidazolo [1,2-a]pyridin-5-yl)-4-methylpiperidin-4-amine]	706 nM	–	5.4 µM	–
Nc1nc(N2CCC3(CC2)Cc2ccccc2[C@H]3N)n2ccnc2c1Sc1cccnc1C(F)(F)F [Example 5]	0.8 nM	< 0.0015 µM	–	–
Cc1nc(N2CCC3(CC2)Cc2ccccc2[C@H]3N)n2ccnc2c1Sc1cccnc1C(F)(F)F [Example 2]	–	0.0313 µM	–	–
Nc1nccc(Sc2c(CF)nc(N3CCC4(CC3)Cc3ccccc3[C@H]4N)n3ccnc23)c1Cl [Example 12, (S)-1′-(8-((2-amino-3-chloropyridin-4-yl)thio)-7-(fluoromethyl)imidazo [1,2-c]pyrimidin-5-yl)-1,3-dihydrospiro [indene-2,4′-piperidine]-1-amine]	2.9 nM	0.0247 µM	–	–
Cc1nc(N2CCC3(CC2)Cc2ccccc2[C@H]3N)n2ccnc2c1-c1ccnc(N)c1Cl [Example 15, (S)-1′-(8-(2-amino-3-chloropyridin-4-yl)-7-methylimidazo [1,2-c]pyrimidin-5-yl)-1,3-dihydrospiro [indene-2,4′-piperidine]-1-amine]	12.1 nM	0.135 µM	–	–
CC1(N)CCN(c2nc(N)c(-c3cccc(Cl)c3Cl)c3nccn23)CC1 [Example 27, 5-(4-amino-4-methylpiperidin-1-yl)-8-(2,3-dichlorophenyl) imidazole [1,2-c] pyrimidin-7-amine]	287 nM	–	–	2.55 µM
Cc1cc(N2CCC3(CC2)Cc2ccccc2[C@H]3N)n2ncnc2c1Sc1ccnc(N)c1Cl [Example 19, (S)-1′-(8-((2-amino-3-chloropyridin-4-yl)thio)-7-methyl-[1,2,4]triazolo [1,5-a]pyridin-5-yl)-1,3-dihydrospiro [indene-2,4′-piperidine]-1-amine]	29.5 nM	0.687 µM	–	–
Cc1nc(N2CCC3(CC2)Cc2ccccc2[C@H]3N)n2ccnc2c1Sc1ccnc(NC2CC2)c1Cl [Example 3, (S)-1′-(8-((3-chloro-2-(cyclopropylamino)pyridin-4-yl)thio)-7-methylimidazo [1,2-c]pyrimidin-5-yl)-1,3-dihydrospiro [indene-2,4′-piperidine]-1-amine]	1 nM	0.0028 µM	–	–
Cc1nc(N2CCC(C)(N)CC2)n2cnnc2c1-c1cccc(Cl)c1Cl [Example 22, 1-(8-(2,3-dichlorophenyl)-7-methyl-[1,2,4]triazole [4,3-c]pyrimidin-5-yl)-4-methylpiperidin-4-amine]	–	–	> 10 µM	–
Cc1cc(N2CCC3(CC2)Cc2ccccc2[C@H]3N)n2cnnc2c1Sc1ccnc(N)c1Cl [Example 18, (S)-1′-(8-((2-amino-3-chloropyridin-4-yl)thio)-7-methyl-[1,2,4]triazolo [4,3-a]pyridin-5-yl)-1,3-dihydrospiro [indene-2,4′-piperidine]-1-amine]	24.6 nM	0.86 µM	–	–

Source: US12281118B2, “Nitrogen-containing fused heterocyclic SHP2 inhibitor compound, preparation method, and use” (SHANGHAI RINGENE BIOPHARMA CO., LTD., priority 2018, dated 2025)
